Laboratory results from ChEMBL document CHEMBL4400561, “Isolation, structural elucidation, and insights into the anti-inflammatory effects of triterpene saponins from the leaves of Stauntonia hexaphylla” (Bioorg Med Chem Lett, 2019).

How the values were obtained:
RAW264.7 [1] = experiment: Anti-inflammatory activity in mouse RAW264.7 cells assessed as inhibition of LPS-induced NO production preincubated for 1 hr followed by LPS-stimulation and measured after 18 hrs by Griess reagent-based assay; assay type: functional, cell-based
RAW264.7 [2] = experiment: Cytotoxicity against mouse RAW264.7 cells at anti-inflammatory IC50 after 19 hrs by MTT assay; assay type: cell-based; conditions: raw264.7, 19 h
RAW264.7 [3] = experiment: Anti-inflammatory activity in mouse LPS-stimulated RAW264.7 cells assessed as decrease in PGE2 levels at preincubated for 1 hr followed by LPS-stimulation and measured after 12 hrs by ELISA; assay type: functional, cell-based
RAW264.7 [4] = experiment: Anti-inflammatory activity in mouse LPS-stimulated RAW264.7 cells assessed as decrease in COX2 protein levels preincubated for 1 hr followed by LPS-stimulation and measured after 16 hrs by Western blot analysis; assay type: functional, cell-based
RAW264.7 [5] = experiment: Anti-inflammatory activity in mouse LPS-stimulated RAW264.7 cells assessed as decrease in IL1beta levels preincubated for 1 hr followed by LPS-stimulation and measured after 12 hrs by ELISA; assay type: functional, cell-based
RAW264.7 [6] = experiment: Anti-inflammatory activity in mouse LPS-stimulated RAW264.7 cells assessed as decrease in TNFalpha levels preincubated for 1 hr followed by LPS-stimulation and measured after 12 hrs by ELISA; assay type: functional, cell-based
RAW264.7 [7] = experiment: Anti-inflammatory activity in mouse LPS-stimulated RAW264.7 cells assessed as decrease in iNOS protein levels preincubated for 1 hr followed by LPS-stimulation and measured after 16 hrs by Western blot analysis; assay type: functional, cell-based
RAW264.7 [8] = experiment: Anti-inflammatory activity in mouse LPS-stimulated RAW264.7 cells assessed as decrease in IL6 levels preincubated for 1 hr followed by LPS-stimulation and measured after 12 hrs by ELISA; assay type: functional, cell-based

SMILES	IC50 (RAW264.7 [1]) [µM]	Activity (RAW264.7 [2])	further results
C=C1CC[C@]2(C(=O)O[C@@H]3O[C@H](CO[C@@H]4O[C@H](CO)[C@@H](O)[C@H](O)[C@H]4O)[C@@H](O)[C@H](O)[C@H]3O)CC[C@]3(C)C(=CC[C@@H]4[C@@]5(C)CC[C@H](O)[C@@](C)(CO)[C@@H]5CC[C@]43C)[C@@H]2C1	> 50	Non-Toxic	
CC1(C)CC[C@]2(C(=O)O[C@@H]3O[C@H](CO[C@@H]4O[C@H](CO)[C@@H](O)[C@H](O)[C@H]4O)[C@@H](O)[C@H](O)[C@H]3O)CC[C@]3(C)C(=CC[C@@H]4[C@@]5(C)CC[C@H](O[C@@H]6OC[C@H](O)[C@H](O)[C@H]6O)C(C)(C)[C@@H]5CC[C@]43C)[C@@H]2C1	> 50	Non-Toxic	
C=C1CC[C@]2(C(=O)O[C@@H]3O[C@H](CO[C@@H]4O[C@H](CO)[C@@H](O)[C@H](O)[C@H]4O)[C@@H](O)[C@H](O)[C@H]3O)CC[C@]3(C)C(=CC[C@@H]4[C@@]5(C)CC[C@H](O[C@@H]6OC[C@H](O)[C@H](O)[C@H]6O[C@@H]6O[C@H](CO)[C@@H](O)[C@H](O)[C@H]6O)C(C)(C)[C@@H]5CC[C@]43C)[C@@H]2C1	> 50	Non-Toxic	
CC1(C)CC[C@]2(C(=O)O[C@@H]3O[C@H](CO[C@@H]4O[C@H](CO)[C@@H](O)[C@H](O)[C@H]4O)[C@@H](O)[C@H](O)[C@H]3O)CC[C@]3(C)C(=CC[C@@H]4[C@@]5(C)CC[C@H](O)C(C)(C)[C@@H]5CC[C@]43C)[C@@H]2C1	> 50	Non-Toxic	
CC1(C)CC[C@]2(C(=O)O)CC[C@]3(C)C(=CC[C@@H]4[C@@]5(C)CC[C@H](O)[C@@](C)(CO[C@@H]6O[C@H](CO[C@@H]7O[C@H](CO)[C@@H](O)[C@H](O)[C@H]7O)[C@@H](O)[C@H](O)[C@H]6O)[C@@H]5CC[C@]43C)[C@@H]2C1	> 50	Non-Toxic	
CC1(C)CC[C@]2(C(=O)O[C@@H]3O[C@H](CO)[C@@H](O)[C@H](O)[C@H]3O)CC[C@]3(C)C(=CC[C@@H]4[C@@]5(C)CC[C@H](O)C(C)(C)[C@@H]5CC[C@]43C)[C@@H]2C1	> 50	Non-Toxic	
CC1(C)CC[C@]2(C(=O)O[C@@H]3O[C@H](CO[C@@H]4O[C@H](CO)[C@@H](O)[C@H](O)[C@H]4O)[C@@H](O)[C@H](O)[C@H]3O)CC[C@]3(C)C(=CC[C@@H]4[C@@]5(C)CC[C@H](O)[C@@](C)(CO)[C@@H]5CC[C@]43C)[C@@H]2C1 [DIPSACUSSAPONIN A]	> 50	Non-Toxic	
CC1(C)CC[C@]2(C(=O)O)CC[C@]3(C)C(=CC[C@@H]4[C@@]5(C)CC[C@H](O)[C@@](C)(CO[C@@H]6O[C@H](CO)[C@@H](O)[C@H](O)[C@H]6O)[C@@H]5CC[C@]43C)[C@@H]2C1	> 50	Non-Toxic	
CC1(C)CC[C@]2(C(=O)O)CC[C@]3(C)C(=CC[C@@H]4[C@@]5(C)CC[C@H](O[C@@H]6OC[C@H](O)[C@H](O)[C@H]6O[C@@H]6O[C@H](CO)[C@@H](O)[C@H](O)[C@H]6O)C(C)(C)[C@@H]5CC[C@]43C)[C@@H]2C1	1.82	Non-Toxic	inhibition (RAW264.7 [3]): Dose-dependent effect; inhibition (RAW264.7 [4]): Dose-dependent effect; inhibition (RAW264.7 [5]): Dose-dependent effect; inhibition (RAW264.7 [6]): Dose-dependent effect; inhibition (RAW264.7 [7]): Dose-dependent effect; inhibition (RAW264.7 [8]): Dose-dependent effect
C=C1CC[C@]2(C(=O)O[C@@H]3O[C@H](CO[C@@H]4O[C@H](CO)[C@@H](O[C@@H]5O[C@@H](C)[C@H](O)[C@@H](O)[C@H]5O)[C@H](O)[C@H]4O)[C@@H](O)[C@H](O)[C@H]3O)CC[C@]3(C)C(=CC[C@@H]4[C@@]5(C)CC[C@H](O)C(C)(C)[C@@H]5CC[C@]43C)[C@@H]2C1	> 50	Non-Toxic	
C[C@@H]1O[C@@H](O[C@H]2[C@H](O[C@H]3CC[C@]4(C)[C@H]5CC=C6[C@@H]7CC(C)(C)CC[C@]7(C(=O)O)CC[C@@]6(C)[C@]5(C)CC[C@H]4C3(C)C)OC[C@H](O)[C@@H]2O[C@@H]2O[C@H](CO)[C@@H](O)[C@H](O)[C@H]2O)[C@H](O)[C@H](O)[C@H]1O	> 50	Non-Toxic	
C=C1CC[C@]2(C(=O)O[C@@H]3O[C@H](CO[C@@H]4O[C@H](CO)[C@@H](O)[C@H](O)[C@H]4O)[C@@H](O)[C@H](O)[C@H]3O)CC[C@]3(C)C(=CC[C@@H]4[C@@]5(C)CC[C@H](O)C(C)(C)[C@@H]5CC[C@]43C)[C@@H]2C1	> 50	Non-Toxic	
C=C1CC[C@]2(C(=O)O)CC[C@]3(C)C(=CC[C@@H]4[C@@]5(C)CC[C@H](O[C@@H]6OC[C@H](O)[C@H](O)[C@H]6O[C@@H]6O[C@H](CO)[C@@H](O)[C@H](O)[C@H]6O)C(C)(C)[C@@H]5CC[C@]43C)[C@@H]2C1	16.6	Non-Toxic	
C[C@@H]1C[C@H]2[C@@H]3CCC4=CC(=O)C=C[C@]4(C)[C@@]3(F)[C@@H](O)C[C@]2(C)[C@@]1(O)C(=O)CO [DEXAMETHASONE]	0.13	Non-Toxic	

Second part, led by results:

IC50 (RAW264.7 [1]) [µM]	SMILES	Activity (RAW264.7 [2])	further results
> 50	C[C@@H]1O[C@@H](O[C@H]2[C@H](O)[C@@H](O)[C@H](OC[C@H]3O[C@@H](OC(=O)[C@]45CCC(C)(C)C[C@H]4C4=CC[C@@H]6[C@@]7(C)CC[C@H](O[C@@H]8OC[C@H](O)[C@H](O)[C@H]8O)[C@@](C)(CO)[C@@H]7CC[C@@]6(C)[C@]4(C)CC5)[C@H](O)[C@@H](O)[C@@H]3O)O[C@@H]2CO)[C@H](O)[C@H](O)[C@H]1O [CAULOSIDE D]	Non-Toxic	
> 50	C[C@@H]1O[C@@H](O[C@H]2[C@H](O)[C@@H](O)[C@H](OC[C@H]3O[C@@H](OC(=O)[C@]45CCC(C)(C)C[C@H]4C4=CC[C@@H]6[C@@]7(C)CC[C@H](O)C(C)(C)[C@@H]7CC[C@@]6(C)[C@]4(C)CC5)[C@H](O)[C@@H](O)[C@@H]3O)O[C@@H]2CO)[C@H](O)[C@H](O)[C@H]1O [CIRENSENOSIDE O]	Non-Toxic	
> 50	CC1(C)CC[C@]2(C(=O)O[C@@H]3O[C@H](CO[C@@H]4O[C@H](CO)[C@@H](O)[C@H](O)[C@H]4O)[C@@H](O)[C@H](O)[C@H]3O)CC[C@]3(C)C(=CC[C@@H]4[C@@]5(C)CC[C@H](O[C@@H]6OC[C@H](O)[C@H](O)[C@H]6O[C@@H]6O[C@H](CO)[C@@H](O)[C@H](O)[C@H]6O)C(C)(C)[C@@H]5CC[C@]43C)[C@@H]2C1	Non-Toxic	
> 50	C[C@@H]1O[C@@H](O[C@H]2[C@H](O)[C@@H](O)[C@H](OC[C@H]3O[C@@H](OC(=O)[C@]45CCC(C)(C)C[C@H]4C4=CC[C@@H]6[C@@]7(C)CC[C@H](O)[C@@](C)(CO)[C@@H]7CC[C@@]6(C)[C@]4(C)CC5)[C@H](O)[C@@H](O)[C@@H]3O)O[C@@H]2CO)[C@H](O)[C@H](O)[C@H]1O [KIZUTA CIRENSENOSIDE O SAPONIN K3]	Non-Toxic	
> 50	CC1(C)CC[C@]2(C(=O)O[C@@H]3O[C@H](CO[C@@H]4O[C@H](CO)[C@@H](O)[C@H](O)[C@H]4O)[C@@H](O)[C@H](O)[C@H]3O)CC[C@]3(C)C(=CC[C@@H]4[C@@]5(C)CC[C@H](O[C@@H]6OC[C@H](O)[C@H](O[C@@H]7O[C@H](CO)[C@@H](O)[C@H](O)[C@H]7O)[C@H]6O)C(C)(C)[C@@H]5CC[C@]43C)[C@@H]2C1	Non-Toxic	
> 50	CC1(C)CC[C@]2(C(=O)O[C@@H]3O[C@H](CO[C@@H]4O[C@H](CO)[C@@H](O)[C@H](O)[C@H]4O)[C@@H](O)[C@H](O)[C@H]3O)CC[C@]3(C)C(=CC[C@@H]4[C@@]5(C)CC[C@H](O[C@@H]6OC[C@H](O)[C@H](O)[C@H]6O)[C@@](C)(CO)[C@@H]5CC[C@]43C)[C@@H]2C1	Non-Toxic	
> 50	C[C@@H]1O[C@@H](O[C@H]2[C@H](O[C@H]3CC[C@@]4(C)[C@@H](CC[C@]5(C)[C@@H]4CC=C4[C@@H]6CC(C)(C)CC[C@]6(C(=O)O[C@@H]6O[C@H](CO[C@@H]7O[C@H](CO)[C@@H](O[C@@H]8O[C@@H](C)[C@H](O)[C@@H](O)[C@H]8O)[C@H](O)[C@H]7O)[C@@H](O)[C@H](O)[C@H]6O)CC[C@]45C)[C@]3(C)CO)OC[C@H](O)[C@@H]2O)[C@H](O)[C@H](O)[C@H]1O [KALOPANAXSAPONIN B]	Non-Toxic	
> 50	C=C1CC[C@]2(C(=O)O[C@@H]3O[C@H](CO[C@@H]4O[C@H](CO)[C@@H](O[C@@H]5O[C@@H](C)[C@H](O)[C@@H](O)[C@H]5O)[C@H](O)[C@H]4O)[C@@H](O)[C@H](O)[C@H]3O)CC[C@]3(C)C(=CC[C@@H]4[C@@]5(C)CC[C@H](O[C@@H]6OC[C@H](O)[C@H](O)[C@H]6O)[C@@](C)(CO)[C@@H]5CC[C@]43C)[C@@H]2C1	Non-Toxic	
> 50	CC1(C)CC[C@]2(C(=O)O[C@@H]3O[C@H](CO[C@@H]4O[C@H](CO)[C@@H](O)[C@H](O)[C@H]4O)[C@@H](O)[C@H](O)[C@H]3O)CC[C@]3(C)C(=CC[C@@H]4[C@@]5(C)CC[C@H](O[C@@H]6OC[C@H](O)[C@H](O)[C@H]6O[C@@H]6O[C@H](CO)[C@@H](O)[C@H](O)[C@H]6O)[C@@](C)(CO)[C@@H]5CC[C@]43C)[C@@H]2C1	Non-Toxic	
